The test system of assay [1] is β1c. The note with it: in parentheses in Table S2, SI reference list, cited from earlier work.
In assay [2] the target is β2i subunit of human iCP (Homo sapiens, UniProt P40306+P49720). As to the kind of experiment: IC50 determination with fluorogenic substrate Ac-RLR-AMC (PA28β added).
Description: (§1) The measurements of the residual activity of control compounds were carried out at final compound concentrations of 1 μM in the assay buffer (50 mM Tris-HCl, 0.5 mM ethylenediaminetetraacetic acid (EDTA), pH 7.4). Stock solutions of the compounds were prepared in DMSO. To the 35 μL of solution of the compound in the buffer, 35 μL of 0.4 nM human iCP (South Bay Bio, San Jose, CA, USA) or human cCP (Boston Biochem, Inc., Cambridge, MA, USA) was added. For assays evaluating the activity of β2c and β2i, the buffer was modified by adding the proteasomal activator PA28β (Boston Biochem, Inc., Cambridge, MA, USA) at a final concentration of 6 nM. […] The substrates used were acetyl-Nle-Pro-Nle-Asp-7-amino-4-methylcoumarin (Ac-nLPnLD-AMC, Bachem, Bubendorf, Switzerland) for β1c, acetyl-Pro-Ala-Leu-7-amino-4-methylcoumarin (Ac-PAL-AMC, Boston Biochem, Inc., Cambridge, MA, USA) for β1i, acetyl-Arg-Leu-Arg-7-amino-4-methylcoumarin (Ac-RLR-AMC, Bachem, Bubendorf, Switzerland) for β2c and β2i, acetyl-Trp-Leu-Ala-7-amino-4-methylcoumarin (Ac-WLA-AMC, Bachem, Bubendorf, Switzerland) for β5c, and acetyl-Ala-Asn-Trp-7-amino-4-methylcoumarin (Ac-ANW-AMC, Bachem, Bubendorf, Switzerland) for β5i. Progress of the reaction was measured using a BioTek Synergy HT microplate reader, monitoring fluorescence at 460 nm (excitation at 360 nm) for 60 min at 37 °C. The initial linear ranges were used to calculate the reaction velocity and determine the residual activity.
(§2) The final assay mixtures contained 0.4 nM human iCP or cCP in assay buffer (50 mM Tris-HCl, 0.5 mM EDTA, pH 7.4, addition of PA28β for β2c and β2i subunits). […] After incubation at 37 °C for 30 min, the reaction was initiated by the addition of the substrate Ac-nLPnLD-AMC for β1c, Ac-PAL-AMC for β1i, Ac-RLR-AMC for β2c and β2i, Ac-WLA-AMC for β5c, and Ac-ANW-AMC for β5i. Fluorescence was monitored at 460 nm (excitation at 360 nm) for 60 min at 37 °C. The reaction progress was recorded and the initial linear phases were used to determine the velocity. The IC50 values were calculated using GraphPad Prism software (GraphPad Software, San Diego, CA, USA), and the results represent the mean values of at least three independent determinations.
Assay [3] deals with β1i. The note with it: in parentheses in Table S2; SI reference list; read-out: IC50 β1i, previously published data; cited from earlier work.
The target in assay [4] is β1i subunit of human iCP (Homo sapiens, UniProt P28065+P40306). Put plainly: IC50 determination with subunit-specific fluorogenic substrate Ac-PAL-AMC. The following applies: IC50 β1i.
Description: as §1, §2
Assay [5] has as its target T1, β2c subunit of human cCP (Homo sapiens, UniProt P49720+Q99436).
T1 construct: purchased Boston Biochem, Inc
As to the kind of experiment: IC50 determination with fluorogenic substrate Ac-RLR-AMC (PA28β added). In kind it is biochemical.
Description: Stock solutions of the compounds were prepared in DMSO. To the 35 μL of solution of the compound in the buffer, 35 μL of 0.4 nM human iCP (South Bay Bio, San Jose, CA, USA) or human cCP (Boston Biochem, Inc., Cambridge, MA, USA) was added. For assays evaluating the activity of β2c and β2i, the buffer was modified by adding the proteasomal activator PA28β (Boston Biochem, Inc., Cambridge, MA, USA) at a final concentration of 6 nM. […] The substrates used were acetyl-Nle-Pro-Nle-Asp-7-amino-4-methylcoumarin (Ac-nLPnLD-AMC, Bachem, Bubendorf, Switzerland) for β1c, acetyl-Pro-Ala-Leu-7-amino-4-methylcoumarin (Ac-PAL-AMC, Boston Biochem, Inc., Cambridge, MA, USA) for β1i, acetyl-Arg-Leu-Arg-7-amino-4-methylcoumarin (Ac-RLR-AMC, Bachem, Bubendorf, Switzerland) for β2c and β2i, acetyl-Trp-Leu-Ala-7-amino-4-methylcoumarin (Ac-WLA-AMC, Bachem, Bubendorf, Switzerland) for β5c, and acetyl-Ala-Asn-Trp-7-amino-4-methylcoumarin (Ac-ANW-AMC, Bachem, Bubendorf, Switzerland) for β5i. Progress of the reaction was measured using a BioTek Synergy HT microplate reader, monitoring fluorescence at 460 nm (excitation at 360 nm) for 60 min at 37 °C. The initial linear ranges were used to calculate the reaction velocity and determine the residual activity.
as §2

Assay [6] relates to β5c. The following applies: in parentheses in Table S2; SI reference list; read-out: IC50 β5c, previously published data; cited from earlier work.
Assay [7] deals with β2i. The note with it: in parentheses in Table S2; SI reference list; read-out: IC50 β2i, previously published data; cited from earlier work.
The target in assay [8] is T2, β1c subunit of human cCP (Homo sapiens, UniProt P28072+Q99436).
T2 construct: purchased Boston Biochem, Inc
Put plainly: IC50 determination with subunit-specific fluorogenic substrate Ac-nLPnLD-AMC. In kind it is biochemical.
Description: as §1, §2

Assay [9] relates to β5i. The following applies: in parentheses in Table S2; SI reference list; read-out: IC50 β5i, previously published data; cited from earlier work.
In assay [10] the target is β5i subunit of human iCP (Homo sapiens, UniProt P20618+P28062). As to the kind of experiment: IC50 determination with fluorogenic substrate Ac-ANW-AMC. The following applies: for IC50: IC50 β5i.
Description: as §1, §2
Assay [11] has as its system LPS-stimulated PBMCs. As to the kind of experiment: Cytokine secretion, Cytometric Bead Array. Format: cell-based, human. The following applies: 250 nM; 1 h pretreatment, LPS 1 μg/mL, 24 h; IL-1, IL-6, IL-8, IL-10, TNF-α. The method, then: PBMCs (1.5 × 10^6/mL) were plated in culture media in 96-well round-bottom plates. After a 60 min treatment with compounds at 37 °C and 5% CO2, cells were stimulated with LPS (Escherichia coli, O111:B4, 1 μg/mL, Sigma) for 24 h. Supernatants were then collected and analyzed for cytokine release by Human Inflammatory Cytokine Cytometric Bead Array (BD Biosciences, New Jersey, USA).

Assay [12] has as its target T3, β5c subunit of human cCP (Homo sapiens, UniProt P20618+P28074).
T3 construct: purchased Boston Biochem, Inc
Put plainly: IC50 determination with fluorogenic substrate Ac-WLA-AMC. In kind it is biochemical.
Description: as §1, §2

In assay [13] the test system is β2c. The following applies: in parentheses in Table S2; SI reference list; read-out: IC50 β2c, previously published data; cited from earlier work.
Assay [14] concerns all subunits of the human cCP and iCP. As to the kind of experiment: Subunit inhibition profile and preference across cCP and iCP subunits. The following applies: for fold lower potency on the cCP counterparts of β1i and β5i: β1c, β5c vs β1i. Format: biochemical.
Description: as §2
The mark [15] stands for this setting: read-out: IC50 β1c, previously published data.
Where [16] appears, read: human iCP, mean of at least three experiments, NA: not active at 50 μM.
The mark [17] stands for this setting: human cCP, mean of at least three experiments, NA: not active at 50 μM.

Several values for one entry are separate records, joined by “and”; a condition that tells them apart may be missing. Equal values may be shown once. Read-outs that look alike come from different tables or passages of the source. Where only a bound is given, the exact number is not on record here.

In the case of `COc1ccc([C@@H](O)[C@H](NC(=O)[C@H](C)NC(=O)CN2CCOCC2)C(=O)N[C@@H](CC2=CCCC2)C(=O)[C@@]2(C)CO2)cc1` [KZR-616, (2S,3R)-N-((S)-3-(Cyclopent-1-En-1-Yl)-1-((R)-2-Methyloxiran-2-yl)-1-Oxopropan-2-yl)-3-Hydroxy-3-(4-Methoxyphenyl)-2-((S)-2-(2-Morpholinoacetamido)Propanamido)Propenamide, reference compound], the IC50 is over 10.6 µM in assay [1] (setting [15]); 0.338 ± 0.122 µM in assay [2]; 0.131 µM in assay [3]; 0.096 ± 0.032 µM in assay [4] (own assay); 0.403 ± 0.151 µM in [5] (own assay); 0.688 µM in assay [6]. Further, the IC50 in assay [7] is 0.623 µM; in [8] (own assay), over 1 µM; in [9] it was 0.039 µM; in assay [10] (own assay), 0.026 ± 0.021 µM; in assay [12] (own assay) it was 0.426 ± 0.048 µM; in [13] it was 0.604 µM. In addition, the “Effect on secretion of cytokines in LPS-stimulated PBMCs” value (“Effect on secretion of cytokines” below) in assay [11] is “reduced the secretion of IL-1, IL-6, IL-8, IL-10, and TNF-α to a significant degree”.

Consider `O=C(N[C@@H](Cc1ccccc1)C(=O)N[C@H](B(O)O)c1ccccc1)c1cnccn1` [5a, ((R)-Phenyl((S)-3-Phenyl-2-(pyrazine-2-carboxamido)propanamido)methyl)boronic Acid], for which the IC50 in assay [4] (setting [16]) turned out to be 0.746 µM; in [10] (setting [16]) it was 0.22 µM; in assay [12] (setting [17]) it was 12.8 µM.

Take `COc1ccc([C@H](NC(=O)[C@H](Cc2ccccc2)NC(=O)c2cnccn2)B(O)O)cc1` [5e, ((R)-(4-Methoxyphenyl)((S)-3-phenyl-2-(pyrazine-2-carboxamido)propanamido)methyl)boronic Acid]: the IC50 came to 10.4 µM in assay [2]; 0.04 µM in [4] (setting [16]); 79 µM in assay [5] (setting [17]); 1.34 µM in assay [8] (setting [17]); 0.015 µM in [10] (setting [16]); 0.402 µM in [12] (setting [17]). Moreover, in assay [14], the “fold lower potency on the cCP counterparts of β1i and β5i” value (shortened to “fold lower potency … of β1i and β5i”) was 10–20 fold.

As for `CC(C)C[C@H](NC(=O)[C@H](CCc1ccccc1)NC(=O)CN1CCOCC1)C(=O)N[C@@H](Cc1ccccc1)C(=O)N[C@@H](CC(C)C)C(=O)[C@@]1(C)CO1` [carfilzomib], the IC50 in assay [1] (read-out: IC50 β1c, literature data) is 0.013 µM.

As for `CCOC(=O)c1cccc([C@H](NC(=O)[C@H](Cc2ccccc2)NC(=O)c2cnccn2)B(O)O)c1` [5f, ((R)-(3-(Ethoxycarbonyl)phenyl)((S)-3-phenyl-2-(pyrazine-2-carboxamido)propanamido)methyl)boronic Acid], the IC50 in assay [4] (setting [16]) came to 22.4 µM; in [10] (setting [16]), 1.3 µM; in assay [12] (setting [17]), 3.3 µM.

Regarding `Cc1ccc([C@H](NC(=O)[C@H](Cc2ccccc2)NC(=O)c2cnccn2)B(O)O)cc1` [5b, ((R)-((S)-3-Phenyl-2-(pyrazine-2-carboxamido)propanamido)(p-tolyl)methyl)boronic Acid], the IC50 in assay [2] stood at 9.8 µM; in [4] (setting [16]) it was 0.042 µM; in assay [8] (setting [17]), 0.545 µM; in assay [10] (setting [16]) it was 0.032 µM; in assay [12] (setting [17]) it was 0.712 µM. In addition, the “fold lower potency … of β1i and β5i” value in assay [14] is on record as 10–20 fold. The “Effect on secretion of cytokines” value in [11] is on record as “significantly diminished ability to affect cytokine release”.

Consider `COc1ccc(C[C@H](NC(=O)[C@H](C)NC(=O)CN2CCOCC2)C(=O)N[C@@H](Cc2ccccc2)C(=O)[C@@]2(C)CO2)cc1` [ONX-0914], for which the IC50 in assay [1] (setting [15]) is over 10 µM; in assay [6], 0.054 µM; in assay [13], 1.1 µM. In assay [11], the “Effect on secretion of cytokines” value is listed as “Very similar result”.

Take `O=C(N[C@@H](Cc1ccccc1)C(=O)N[C@@H](Cc1ccccc1)B(O)O)c1cnccn1` [5i, ((R)-2-Phenyl-1-((S)-3-phenyl-2-(pyrazine-2-carboxamido)propanamido)ethyl)boronic Acid]: the IC50 stood at 3.4 µM in [2]; 0.054 µM in [4] (setting [16]); 4.9 µM in assay [5] (setting [17]); 0.235 µM in assay [8] (setting [17]); 0.017 µM in assay [10] (setting [16]); 0.054 µM in [12] (setting [17]).

For `O=C(N[C@@H](Cc1ccccc1)C(=O)N[C@H](B(O)O)c1ccc2c(c1)OCO2)c1cnccn1` [5g, ((R)-Benzo[d][1,3]dioxol-5-yl((S)-3-phenyl-2-(pyrazine-2-carboxamido)propanamido)methyl)boronic Acid], the half-maximal inhibitory concentration (IC50) in [2] was determined as 8.6 µM; in [4] (setting [16]), 0.201 µM; in [5] (setting [17]), 45 µM; in assay [8] (setting [17]), 0.315 µM; in assay [10] (setting [16]) it was 0.018 µM; in [12] (setting [17]) it was 0.183 µM. Also, the “IC50 for β5i, fold lower than for β1i, β1c, and β5c” value in assay [10] came out at 10 fold.

For `COc1ccc(C[C@H](NC(=O)[C@H](C)NC(=O)CN2CCOCC2)C(=O)N[C@@H](CC2CCCC3CCCCC32)C(=O)[C@@]2(C)CO2)cc1` (stereo partly shown) [Lu-002i], the IC50 in assay [1] (setting [15]), in assay [3], in [6] and in [9] was over 100 µM throughout.

As to `CC(C)C[C@H](NC(=O)C(C)(C)NC(=O)c1ccccc1C(F)(F)F)B(O)O` [ML604440, reference compound], the 50% inhibitory concentration (IC50) is over 1 µM in assay [2]; ~0.0125 µM and 0.0125 µM in assay [3]; 0.008 ± 0.005 µM in assay [4] (own assay); over 1 µM in [5] (own assay); over 1 µM in assay [6]; over 1 µM in [8] (own assay). Besides, the IC50 in assay [9], in assay [10] (own assay) and in [12] (own assay) was over 1 µM in each case.

On to `O=C(N[C@@H](Cc1ccccc1)C(=O)N[C@H](B(O)O)C1CC1)c1cnccn1` [5k, ((R)-Cyclopropyl((S)-3-phenyl-2-(pyrazine-2-carboxamido)propanamido)methyl)boronic Acid], for which the IC50 came out at 0.499 µM in assay [2]; 0.172 µM in [4] (setting [16]); 0.44 µM in assay [5] (setting [17]); 0.827 µM in [8] (setting [17]); 0.009 µM in assay [10] (setting [16]); 0.005 µM in [12] (setting [17]). Further, in assay [14] (compared with bortezomib), the “fold lower potency on β1c and β1i” value is “approximately 80 fold”.

`CC(C)(C)ONC(=O)C[C@H](NC(=O)CCc1ccccc1)C(=O)N[C@@H](Cc1ccc(F)cc1)C(=O)NCc1cccc2ccccc12` [DPLG3]: the IC50 in assay [1] (setting [15]) is over 33.3 µM; in [3], over 33.3 µM; in [4] (own assay), over 1 µM; in assay [7] it was over 33.3 µM; in [9], 0.0045 µM; in assay [13], over 33.3 µM.

For `CC[C@H](NC(=O)[C@H](Cc1ccccc1)NC(=O)c1cnccn1)B(O)O` [5j, ((R)-1-((S)-3-phenyl-2-(pyrazine-2-carboxamido)propanamido)propyl)boronic Acid], the IC50 in assay [2] was found to be 1.28 µM; in assay [4] (setting [16]) it was 0.002 µM; in assay [5] (setting [17]), 3.4 µM; in assay [8] (setting [17]), 0.021 µM; in assay [10] (setting [16]), 0.019 µM; in assay [12] (setting [17]), 0.011 µM.

For the compound `C[C@]1(C(=O)[C@H](Cc2ccccc2)NC(=O)[C@H](CO)NC(=O)c2cccc(=O)[nH]2)CO1` [KZR-504], the IC50 was over 1 µM in assay [2]; 0.051 µM in assay [3]; 0.059 ± 0.011 µM in [4] (own assay); over 1 µM in assay [5] (own assay); 6.9 µM in [6]; over 250 µM in assay [7]. The IC50 is 4.3 µM in assay [9] and over 250 µM in assay [13].

In the case of `O=C(N[C@@H](Cc1ccccc1)C(=O)N[C@H](B(O)O)c1ccc(F)cc1)c1cnccn1` [5c, ((R)-(4-Fluorophenyl)((S)-3-phenyl-2-(pyrazine-2-carboxamido)propanamido)methyl)boronic Acid], the IC50 in assay [4] (setting [16]) was found to be 0.038 µM; in [8] (setting [17]), 0.526 µM; in assay [10] (setting [16]), 0.032 µM; in [12] (setting [17]), 0.225 µM. For the same compound, the “fold lower potency … of β1i and β5i” value in assay [14] is 10–20 fold. The “Effect on secretion of cytokines” value in assay [11] was “significantly diminished ability to affect cytokine release”.

(Values after paper PMC12751025, “α‑Aminoboronic Acid Moieties in Boro Dipeptides Modulate Proteasome Subunit Selectivity and Provide Access to Compounds with Potent Anticancer and Anti-Inflammatory Activity” (Journal of Medicinal Chemistry, 2025).)
